Test results taken from article PMC6219988 (Biochemistry, 2018).

Tested on: PTP1B
Assay: PTP1B-catalyzed hydrolysis of pNPP in the presence of inhibitors
Assay type: biochemical
Settings: IC50 at 20 mM pNPP

`CC(C)C1C=C2CCC3C(C)(C(=O)O)CCCC3(C)C2CC1` (single isomer, unassigned; diaa) [DiAA, dihydroabietic acid] was tested, and the “potency (IC50) relative to AA” value (ratio vs AA) was 3 fold and the “potency (IC50) relative to DeAA” value (ratio vs DeAA) was 7 fold.
